Key:
Gambusia affinis = test: Toxicity against Gambusia affinis at 30 to 60 ug/L within 24 hrs; format: organism-based; settings: in vivo
P388 [1] = test: In vivo antitumor activity against mouse P388 cells at 100 ug/kg relative to control; format: functional
P388 [2] = test: In vivo antitumor activity against mouse P388 cells at 300 ug/kg relative to control; format: functional

SMILES | Activity (Gambusia affinis) | T/C (P388 [1]) | T/C (P388 [2])
C=C(C)[C@@]12C[C@@H](COC(=O)c3ccccc3)[C@@]34OC5(O[C@@H]1[C@@H]3[C@@H]1O[C@]1(CO)[C@@H](O)[C@@]1(O)[C@H]4[C@H]([C@H](C)[C@@H]1OC(=O)c1ccc(OC(C)=O)cc1)[C@H](C)CCCCCC[C@H]5O)O2 [SIMPLEXIMACRIN] | Toxic |  | 
C=C1C(=O)O[C@H]2C[C@@H](C)[C@@H]3C=CC(=O)[C@@]3(C)[C@H](OC(C)=O)[C@H]12 [LINIFOLIN A] | Toxic | 107% | 
C=C(C)[C@@]12C[C@@H](C)[C@@]34OC5(O[C@@H]1[C@@H]3[C@@H]1O[C@]1(CO)[C@@H](O)[C@@]1(O)[C@H]4[C@H]([C@H](C)[C@@H]1OC(=O)c1ccccc1)[C@@H](C)CCCCCC[C@H]5O)O2 [LINIMACRIN C] | Toxic |  | 
C=C(C)[C@@]12C[C@@H](C)[C@@]34OC5(CCCCCCC[C@@H](C)[C@H]6[C@H](C)[C@H](OC(=O)c7ccccc7)[C@@](O)([C@H](O)[C@@]7(CO)O[C@H]7[C@H]3[C@H]1O5)[C@@H]64)O2 [PIMELEA FACTOR P3] | Toxic |  | 164%
C=C(C)[C@@]12C[C@@H](C)[C@@]34OC5(O[C@@H]1[C@@H]3[C@@H]1O[C@]1(CO)[C@@H](O)[C@@]1(O)[C@H]4[C@H]([C@H](C)[C@@H]1OC(=O)c1ccccc1)[C@H](C)CCCCCC[C@H]5O)O2 [KRAUSSIANIN] | Toxic |  | 
C=C(C)[C@]12OC34CCCCCCC[C@@H](C)[C@H]5[C@H](C)[C@H](OC(=O)c6ccccc6)[C@@]6(O)[C@H](O)[C@@]7(CO)O[C@H]7[C@@H]([C@H]1O3)[C@](O4)([C@H](C)[C@H]2OC(C)=O)[C@H]56 [LINIMACRIN D] | Toxic |  | 132%
C=C(C)[C@@]12C[C@@H](COC(=O)c3ccccc3)[C@@]34OC5(O[C@@H]1[C@@H]3[C@@H]1O[C@]1(CO)[C@@H](O)[C@@]1(O)[C@H]4[C@H]([C@H](C)[C@@H]1OC(=O)c1ccccc1)[C@H](C)CCCCCC[C@H]5O)O2 [GNIDIMACRIN] | Toxic |  | 
C=C(C)[C@]12C[C@@H](C)[C@@]34OC5(CCCCCCC[C@H](C)[C@H]6[C@H](C)[C@H](OC(=O)c7ccccc7)[C@@](O)([C@H](O)[C@@]7(CO)O[C@H]7[C@H]3[C@H]1O5)[C@@H]64)O2 [PIMELEA FACTOR P2] | Toxic |  | 
